Results taken from paper PMC10605010, “Immunotechniques for the Group Determination of Macrolide Antibiotics Traces in the Environment Using a Volume-Mediated Sensitivity Enhancement Strategy” (Biosensors, 2023).
In brackets after ≈: the same amount, converted by molar mass. Read-outs that look alike come from different tables or passages of the source.

Key:
[1] = test system: antibody to immunogen BSA-cmoERY(ma); parameters: method as in PMID 25308648; details: milk, cited from earlier work
[2] = test system: Anti-CLA(IgG) coupled to Sepharose beads; test: Immunobead assay (IBA); assay type: binding, rabbit; details: 2 h
Method: (§1) Sepharose 4B or Sepharose-CL-2B (Pharmacia, Uppsala, Sweden) were washed with water on a porous glass filter and then squeezed out with a soft press from excess moisture. The washed beads (2 g) were placed in a vial with sodium periodate solution (60 mg in 5 mL H2O) and mixed with a rotary mixer (ELMI Ltd. laboratory equipment, Riga, Latvia) for 45 min. An additional 30 min rotation continued after the addition of ethylene glycol (250 µL). The beads were then washed with water and finally with CBB (pH 9.6) squeezed mildly out. Each of the activated sorbents was placed in a vial for mixing with anti-cmoCLA IgG (10 mg) in 2 mL CBB (pH 9.6) for 48 h at 4 °C. The excess antibody was squeezed out. The beads were then washed with water and placed in a sodium borohydride solution (4 mg/4 mL) for 1 h with occasional shaking. After the final washing with water and PSBT, the resulting immune sorbents were stored at 4 °C in 10 mL of PSBT preserved with Merthiolate (1 mg).
(§2) To implement these assay formats, the IgG fraction was first isolated from antiserum via the double precipitation method using caprylic acid and ammonium sulfate, described in detail in [22]. The principle of the assays is based on competition between analyte and enzyme-labeled antigen (HRP-aecAZI) for binding to an antibody coated on the plate (dcELISA) or coupled covalently to Sepharose beads. The latter immunosorbent was used in the immunobeads assay (IBA) and immunofiltration assay (IFA).
Immunobead assay (IBA). Standard solution of analyte or tested sample in 1–2 mL PBST were accomplished with HRP-aecAZI and immunosorbents Anti-CLA(IgG)-S4B or Anti-CLA(IgG)-SCL2B taken in optimized concentration/volume and incubated for 0.5–3 h periods at a rotary mixer mixing (15 rpm). The beads were then pelleted using centrifugation (5 min, 3400× g) and suspended to the original volume with PBST. After three washing cycles, the bead pellet was suspended with TMB-substrate mixture (200 μL), and 8 M sulfuric acid (50 μL) was added 30 min later to terminate enzymatic reaction. The intensity of the colored product was measured using a plate reader at 450 nm.

[3] = test system: antibody to immunogen BSA-cmoCLA(ae); parameters: method as in PMID 32693204; details: breast milk; CLA = 100; cited from earlier work
[4] = test system: antibody, immunogen Commercial; parameters: method as in PMID 26497839; details: milk; cited from earlier work
[5] = test system: antibody to immunogen BSA-cmoCLA(ae); parameters: method as in doi:10.1039/C9QM00429G; details: milk; CLA = 100; cited from earlier work
[6] = test system: anti-BSA-cmoCLA(ae) antibodies; test: Indirect competitive ELISA (icELISA), variants by coating antigen; assay type: binding, rabbit; details: for CR: CLA = 100
Method: In present work, we investigated and compared several new-designed and previously established coating antigens, which were adsorbed on the 96-well Costar plates from 0.1 to 3.0 µg/mL solutions in CBB (pH 9.6) overnight at 4 °C. […] Solutions of these analytes (1 pg/mL–1 μg/mL) were added to wells of the plate along with anti-cmoCLA antibody in PBS-T with 1%BSA and incubated for 1 h at 25 °C in plate-shaker ST-3 L (ELMI Ltd. laboratory equipment, Riga, Latvia). GAR-HRP was used to detect antigen-antibody formed complexes for 1 h at 37 °C. The activity of the bound enzyme was detected using TMB-substrate mixture, and the intensity of colored product was read at 450 nm using a LisaScan spectrophotometer (Erba Mannheim, Czech Republic). […] The relative antibody-binding absorbance (B/B0) was determined for each concentration of analyte and used to construct a calibration curve as B/B0 versus the concentration. Structurally related macrolides CLA, ESE, ROX, AZI, DIR, TUL, and OLE were analyzed for their cross-reactions. […] Assay sensitivity, limit of detection (LOD), and working range of the assay were set as values of IC50, IC10, and IC20-IC80 range, respectively.

[7] = test system: Anti-CLA(IgG) coupled to Sepharose beads; test: Immunofiltration assay (IFA); assay type: binding, rabbit; details: overnight, Ab volume 50 µL, standard/sample 10,000 µL
Method: as §1, §2
Immunofiltration assay (IFA). The IFA principle consisted of passing a mixture of standard/sample (10 mL) and HRP-aecAZI through the beads with immobilized antibodies (Anti-CLA(IgG)-S4B or Anti-CLA(IgG)-SCL2B) placed in a homemade column and recording the enzymatic activity of the captured HRP-aecAZI. Briefly, the optimal volume of the prepared immunosorbent was placed on a pre-moistened filter support in a 10 μL filtered micropipette tip, which was then accurately attached to a syringe. This homemade column was filled with 10 mL of the standard analyte or water sample, avoiding the formation of bubbles. […]

[8] = Ab volume 10 µL, standard/sample 1000 µL
[9] = Ab volume 20 µL, standard/sample 2000 µL
[10] = coating antigen OVA-aecAZI(dma)

**Q.** Which results are given for `CC[C@H]1OC(=O)[C@H](C)[C@@H](O[C@H]2C[C@@](C)(OC)[C@@H](O)[C@H](C)O2)[C@H](C)[C@@H](O[C@@H]2O[C@H](C)C[C@H](N(C)C)[C@H]2O)[C@](C)(O)C[C@@H](C)C(=O)[C@H](C)[C@@H](O)[C@]1(C)O` [ERY, Erythromycin]?
**A.** CR ([1]; ERY = 100): 100%; IC50 [1]: 0.94 ng/mL (≈ 1.28 nM); LOD [1]: 0.3 ng/mL; IC10 (LOD) [2, 8]: 0.003 ng/mL (≈ 0.00409 nM); IC20-IC80 (working range) [2, 8]: 0.006 to 0.056 ng/mL; IC50 [2, 8]: 0.018 ng/mL (≈ 0.0245 nM); IC10 (LOD) [2, 9]: 0.001 ng/mL (≈ 0.00136 nM); IC20-IC80 (working range) [2, 9]: 0.003 to 0.057 ng/mL; IC50 [2, 9]: 0.012 ng/mL (≈ 0.0164 nM); CR [3]: 7.5%; CR [4]: 100%; LOD [4]: ni//0.13 ng/mL; CR [5]: 30.1%; IC50 ([6]; coating antigen OVA(pi)-aecAZI): 0.042 ng/mL (≈ 0.0572 nM); LOD ([6]; coating antigen OVA(pi)-aecAZI, water): 0.01 ng/mL; CR ([6]; coating antigen OVA(pi)-aecAZI): 105%; IC50 [6, 10]: 0.223 ng/mL (≈ 0.304 nM); CR [6, 10]: 70.4%; IC50 ([6]; coating antigen OVA-aecAZI(ga)): 0.049 ng/mL (≈ 0.0668 nM); CR ([6]; coating antigen OVA-aecAZI(ga)): 87.8%; IC50 ([6]; coating antigen OVA-cmoERY(ae)): 0.240 ng/mL (≈ 0.327 nM); CR ([6]; coating antigen OVA-cmoERY(ae)): 71.7%; IC10 (LOD) [7]: 0.001 ng/mL (≈ 0.00136 nM); IC20-IC80 (working range) [7]: 0.002 to 0.019 ng/mL; IC50 [7]: 0.005 ng/mL (≈ 0.00681 nM)
